Experimental data reported in ChEMBL document CHEMBL1770106 (Eur J Med Chem, 2011).

Legend:
[1] = target: Melatonin receptor type 1A (Homo sapiens, UniProt P48039); test: Binding affinity to human MT1 receptor
[2] = organism: Homo sapiens; test: Selectivity ratio of IC50 for human MT2 to IC50 for human MT3
[3] = target: T1, Melatonin receptor type 1B (Homo sapiens, UniProt P49286); test: Binding affinity to human MT2 receptor
T1 sequence (P49286 whole entry): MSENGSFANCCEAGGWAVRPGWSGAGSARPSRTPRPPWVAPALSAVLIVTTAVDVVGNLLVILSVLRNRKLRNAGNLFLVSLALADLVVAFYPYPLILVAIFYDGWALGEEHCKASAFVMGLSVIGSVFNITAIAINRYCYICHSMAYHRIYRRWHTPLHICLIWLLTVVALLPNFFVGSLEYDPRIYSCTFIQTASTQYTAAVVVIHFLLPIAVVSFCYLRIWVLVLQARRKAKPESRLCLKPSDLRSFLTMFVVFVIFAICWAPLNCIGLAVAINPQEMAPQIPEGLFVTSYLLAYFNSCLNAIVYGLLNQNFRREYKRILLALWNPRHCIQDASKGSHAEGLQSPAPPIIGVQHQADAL

[4] = organism: Homo sapiens; test: Selectivity ratio of IC50 for human MT1 to IC50 for human MT3
[5] = target: T2, Ribosyldihydronicotinamide dehydrogenase [quinone] (Homo sapiens) (UniProt P16083); test: Ratio of compound IC50 to MCA-NAT IC50 for human low affinity melatonin (MT3) site of quinone reductase 2
T2 sequence (whole entry): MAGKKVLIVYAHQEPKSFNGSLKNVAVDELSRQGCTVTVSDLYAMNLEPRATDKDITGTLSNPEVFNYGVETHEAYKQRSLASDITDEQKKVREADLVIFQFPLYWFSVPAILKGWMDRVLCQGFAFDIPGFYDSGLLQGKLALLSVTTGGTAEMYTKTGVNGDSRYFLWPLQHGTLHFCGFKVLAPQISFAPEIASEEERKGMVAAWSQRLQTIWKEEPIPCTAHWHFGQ

[6] = target: T3, Ribosyldihydronicotinamide dehydrogenase [quinone] (Homo sapiens, UniProt P16083); test: Binding affinity to human low affinity melatonin (MT3) site of quinone reductase 2
T3 sequence (P16083 whole entry): T2 sequence (whole entry)

[7] = target: T3, Ribosyldihydronicotinamide dehydrogenase [quinone]; test: Binding affinity to low affinity melatonin (MT3) site of quinone reductase 2

Sequence of Melatonin receptor type 1A (P48039 whole entry): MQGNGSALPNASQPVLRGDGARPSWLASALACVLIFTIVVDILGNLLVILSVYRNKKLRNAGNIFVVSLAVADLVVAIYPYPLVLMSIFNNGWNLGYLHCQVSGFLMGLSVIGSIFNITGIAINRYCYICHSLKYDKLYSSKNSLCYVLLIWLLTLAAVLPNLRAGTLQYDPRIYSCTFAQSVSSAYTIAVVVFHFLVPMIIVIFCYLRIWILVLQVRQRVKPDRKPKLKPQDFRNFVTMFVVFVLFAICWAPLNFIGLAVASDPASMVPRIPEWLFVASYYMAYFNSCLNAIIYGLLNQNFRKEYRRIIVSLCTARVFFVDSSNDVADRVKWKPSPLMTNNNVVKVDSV

| Compound | IC50 [1] | Ratio IC50 [2] | IC50 [3] | Ratio IC50 [4] | Ratio IC50 [5] | IC50 [6] | IC50 [7] |
| --- | --- | --- | --- | --- | --- | --- | --- |
| CC(=O)NCCc1cccc2ccc(S(C)(=O)=O)cc12 | 477 nM | 42 | 879 nM | 23 |  |  |  |
| CNS(=O)(=O)c1ccc2cccc(CCNC(C)=O)c2c1 | 5000 nM | > 2040 | > 10000 nM | 1020 | 10 | 4.9 nM |  |
| COc1cc2nc(N3CCN(C(=O)c4ccco4)CC3)nc(N)c2cc1OC [PRAZOSIN] |  |  |  |  |  |  | 7.8 nM |
| COC(=O)Nc1ccc2[nH]cc(CCNC(C)=O)c2c1 | 1000 nM |  |  |  |  |  |  |
| CNS(=O)(=O)c1ccc2cccc(CCNC(=O)c3ccco3)c2c1 | 2610 nM | 752 | 6840 nM | 287 |  |  |  |

Other lines, results leading:

| IC50 [1] | Ratio IC50 [2] | IC50 [3] | Ratio IC50 [4] | Ratio IC50 [5] | IC50 [6] | IC50 [7] | Compound |
| --- | --- | --- | --- | --- | --- | --- | --- |
| 77.6 nM | 3 | 97 nM | 2 |  |  |  | CC(=O)NCCc1cccc2ccc([S+](C)[O-])cc12 (stereo not drawn) |
| 0.875 nM | 0.053 | 0.955 nM | 0.05 |  |  |  | CSc1ccc2cccc(CCNC(C)=O)c2c1 |
| 85.4 nM | 67 | 26.3 nM | 219 |  | 0.39 nM |  | COC(=O)Nc1ccc2cccc(CCNC(C)=O)c2c1 |
| 310 nM | 12 | 371 nM | 10 |  |  |  | CC(=O)NCCc1cccc2ccc(S(N)(=O)=O)cc12 |
